Measured values: patent US20230218589A1, “COMPOUND FOR PREVENTION OR TREATMENT OF A SKIN CANCER OR SKIN PRECANCER” (UNIQUEST PTY LTD, priority 2020, published 2023)
Read-outs that look alike come from different tables or passages of the source.

What was measured:
[1] = system: human T cells; test: Human T cell proliferation assay (PBMCs, anti-CD3, CellTiter-Glo); format: cell-based
Protocol: Cyclosporine A 1 mg/mL stock (CsA—Sigma) was dissolved in DMSO, Rapamycin 5 mg/mL stock (LC Labs) was dissolved in ethanol.
Under sterile conditions, a 96 well flat bottom plate with white opaque walls (Perkin Elmer) was coated with 10 μg per well of purified human anti-CD3 antibody (clone OKT-3; Biolegend) in a volume of 50 μL per well in sterile PBS. The plate was covered in parafilm and incubated overnight at 4° C. Just prior to addition of Peripheral Blood Mononuclear Cells (PBMCs), the antibody solution was removed and discarded using a multichannel pipette. Wells were washed by adding 200 μL sterile PBS to each well and incubating for 2 min. PBS wash solution was removed and discarded following incubation. The wash step was repeated once, for a total of two PBS washes.
20 mL of blood from a consenting healthy volunteer was collected into lithium heparin vacuette containers (Greiner Bio-One). Under sterile conditions, blood from each container was pooled into a single tube and mixed thoroughly with 20 mL FACS buffer (2% FBS in 1×PBS). 15 mL Ficoll-Paque (GE Healthcare) was added to two 50 mL Falcon tubes, before 20 mL of whole blood/FACS buffer mixture was carefully and slowly dispensed on top of the Ficoll layer. Tubes were centrifuged at 800 g for 20 min at room temperature with the brake off. After centrifugation, the resulting PBMC layer between the plasma and Ficoll layers was carefully removed and transferred to a new 50 mL Falcon tube. Tubes were topped up to 45 mL with FACS buffer, then centrifuged at 500 g for 15 min. Supernatant was carefully removed without disturbing cell pellet, then PBMCs from both tubes were pooled. 30 mL of pre-warmed complete RPMI media [RPMI 1640 (Gibco), 10% heat inactivated FBS (Gibco), 1× Penicillin/Streptomycin/L-Glutamine (Gibco), 100 μM 2-Mercaptoethanol (Sigma)] was added to PBMCs, before centrifugation at 500 g for 15 min at room temperature. Supernatant was removed carefully without disturbing cell pellet. PBMCs were resuspended in 1 mL complete RPMI media.
PBMCs were counted manually using a haemocytometer and cell concentration was adjusted to 1.5×10^6 cells/mL with complete RPMI media. 50 μL of cell suspension was added to appropriate wells of the 96 well flat bottom plate with white opaque walls pre-coated in human anti-CD3. The final number of cells per well was 7.5×10^4.
Cells were incubated in a humidified incubator at 37° C. with 5% CO2 for 1 hour before Compound 1 (or vehicle only) was diluted in complete RPMI medium and added to the appropriate wells at the concentration required. The final volume in all wells was 100 μL. Cells were incubated for 5 days in a humidified incubator at 37° C. with 5% CO2.
CellTiter-Glo Luminescent Cell Viability Assay (Promega) was performed to determine the level of metabolically active cells per well based on ATP quantification. CellTiter-Glo Buffer and lyophilised CellTiter-Glo Substrate were equilibrated to room temperature. CellTiter-Glo Substrate was reconstituted with 10 mL CellTiter-Glo Buffer and gently vortexed for 1 minute to create the CellTiter-Glo Reagent. The 96 well plate containing PBMCs was equilibrated to room temperature for 30 min. Once at room temperature, 100 μL of CellTiter-Glo Reagent was dispensed using a multichannel pipette into each well containing 100 μL cells and media. The plate was mixed for 2 min at room temperature on an orbital shaker to induce cell lysis. The plate was then incubated for 10 min at room temperature in the dark to stabilize the luminescence signal. Luminescence signal was recorded using a CLARIOstar Plus plate reader (BMG Labtech).
PBMCs were stimulated with human anti-CD3 antibody and T cells were allowed to proliferate at 37° C. with 5% CO2 in a humidified incubator for 5 days. Proliferation/viability was assessed via a CellTiter-Glo Luminescent Cell Viability Assay and luminescence was read using a CLARIOstar Plus plate reader. […]

[2] = cSCC tumour pharmacokinetics after intra-tumoural injection (LC/MS/MS); format: in vivo, mouse; conditions: for concentration at 1 h / concentration at 6 h / concentration at 18 h: K14-HPV38-E6/E7, mouse, in vivo
Protocol: Tumour processing: The whole tumour was removed from the mouse. The weight of the tumour was recorded and tumour was placed into an appropriate cryovial on dry ice then transferred to a −80° C. freezer. 3 tumours per time point were assessed.
Calibration standards and quality control samples were prepared by adding 2.5 μL of stock solutions of test compound of different concentrations into 25 μL of naive mouse blood or skin homogenates. Control samples were prepared by spiking 2.5 μL of water or acetonitrile into 25 μL of naïve mouse blood or skin homogenates. Tumour samples were homogenised in 1 mL of PBS then transferred into polypropylene Eppendorf tubes. 100 μL of 0.1 M zinc sulfate was added into the tubes, vortexed for 10 sec, and 250 μL of HPLC-grade acetonitrile containing internal standard (pimecrolimus) was added, vortexed for 2 min, and centrifuged for 3 min at 800×g. 20-40 μL of the supernatant was analysed by LCMS/MS. Instrument: Acquity UPLC, Waters. Column: Acquity BEH C18 100×2.1 mm, 1.7 micron; Mobile phase A: methanol; Mobile phase B: 5 mM ammonium acetate with 0.1% formic acid; Mobile phase gradient details: T=0 min (10% A, 90% B); T=0.01 min (10% A, 90% B); gradient to T=1.5 min (95% A, 5% B); T=3.2 min (95% A, 5% B). Flow rate: 0.3 mL/min, run time: 4.5 min; Ionisation mode: Electrospray ionisation (positive).

| Compound | rescue of T cell proliferation in the presence of rapamycin ([1]; 0.3 μM, 1 μM and 3 μM Compound 1 with 1 ng/mL rapamycin, 5 days) | rescue of T cell proliferation in the presence of cyclosporine A ([1]; 0.3 μM, 1 μM and 3 μM Compound 1 with 50 ng/mL cyclosporine A, 5 days) | rescue of T cell proliferation in the presence of tacrolimus ([1]; 1 μM and 3 μM Compound 1 with 0.6 ng/mL tacrolimus, 5 days) | T cell proliferation/viability with Compound 1 alone ([1]; no tacrolimus, 5 days) | concentration at 1 h ([2]; 1 h post final dose, SCC tumours, read-out: Average Concentration Compound 1 in tumour) [ng/g] | concentration at 6 h ([2]; 6 h post final dose, SCC tumours, read-out: Average Concentration Compound 1 in tumour) [ng/g] | concentration at 18 h ([2]; 18 h post final dose, SCC tumours, read-out: Average Concentration Compound 1 in tumour) [ng/g] | average tumour concentration of Compound 1 relative to that of tacrolimus ([2]; over 18 h) | T cell proliferation compared to the vehicle control ([1]; 0.6 ng/mL tacrolimus, anti-CD3, 5 days) | concentration at 1 h [2] [ng/g] | concentration at 6 h [2] [ng/g] | concentration at 18 h [2] [ng/g] |
| --- | --- | --- | --- | --- | --- | --- | --- | --- | --- | --- | --- | --- |
| CC[C@@H]1/C=C(\C)[C@@H](O)[C@H](C)C[C@H](OC)[C@H]2O[C@@](O)(C(=O)C(=O)N3CCCC[C@H]3C(=O)O[C@H](/C(C)=C/[C@@H]3CC[C@@H](O)[C@H](OC)C3)[C@H](C)[C@@H](O)CC1=O)[C@H](C)C[C@@H]2OC [Compound 1, 17-Ethyl-1,14,20-trihydroxy-12-[2′-(4″-hydroxy-3″-methoxycyclohexyl)-1′-methylvinyl]-23,25-dimethoxy-13,19,21,27-tetramethyl-11,28-dioxa-4-azatricyclo-[22.3.1.0^4,9]octacos-18-ene-2,3,10,16-tetraone] | significantly rescued | unable to rescue | dose dependently and significantly rescued | did not significantly alter | 165000 | 148000 | 168000 | more than 2000 fold |  |  |  |  |
| C=CC[C@@H]1/C=C(\C)C[C@H](C)C[C@H](OC)[C@H]2O[C@@](O)(C(=O)C(=O)N3CCCC[C@H]3C(=O)O[C@H](/C(C)=C/[C@@H]3CC[C@@H](O)[C@H](OC)C3)[C@H](C)[C@@H](O)CC1=O)[C@H](C)C[C@@H]2OC [tacrolimus, reference compound] |  |  |  |  |  |  |  |  | inhibited | 33 | 73 | 52 |
